Experiments:
Assay type in all cases: in vivo
[1] = tested on: Chenopodium album; assay: Test Example 5: herbicidal effect by foliage application, plastic box (symbol O); conditions: 320 g/ha, 3 weeks after application
Procedure, shortened: (§1)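 Sowing in sterilized diluvial soil, 14 days' greenhouse growth at 25° C. to 30° C., then uniform small-sprayer foliar application of aqueous emulsion dilution; plants scored three weeks afterwards.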

[2] = tested on: Echinochloa crus-galli var. crus-galli; assay: Test Example 5: herbicidal effect by foliage application, plastic box (symbol H); conditions: 320 g/ha, 3 weeks after application
Procedure, shortened: as §1

[3] = tested on: Apera spica-venti; assay: Test Example 4: herbicidal effect by soil treatment (symbol L); conditions: application herbicide amount 320 g/ha
Procedure, shortened: (§2)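 Seeds were sown in sterilized diluvial soil, covered with about 1.5 cm of soil, and the soil surface was sprayed with a water-diluted emulsion of the compound at a predetermined rate. Plants grew in a greenhouse at 25° C. to 30° C.; effects were scored visually 3 weeks after application.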

[4] = tested on: Stellaria media; assay: Test Example 4: herbicidal effect by soil treatment (symbol P); conditions: application herbicide amount 320 g/ha
Procedure, shortened: as §2

[5] = tested on: directly sowed rice plant; assay: Test Example 3: effect on crop by foliage application, Wagner pot (symbol b); conditions: application herbicide amount 320 g/ha
Procedure, shortened: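 Steps: fill a 1/10000-are Wagner pot with alluvial soil; add water and mix to submerge at 0.1–0.5 cm depth; sow rice plus Echinochloa crus-galli var. crus-galli, Leptochloa chinensis and Cyperus difformis; grow in a 25–30 °C greenhouse.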

[6] = tested on: Veronica persica; assay: Test Example 5: herbicidal effect by foliage application, plastic box (symbol R); conditions: 320 g/ha, 3 weeks after application
Procedure, shortened: as §1

[7] = tested on: wheat; assay: Test Example 5: effect on crop by foliage application, plastic box (symbol e); conditions: 320 g/ha, 3 weeks after application
Procedure, shortened: (§3)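 Plants were raised from seed in a greenhouse (25° C. to 30° C.) after sowing in a plastic box of sterilized diluvial soil.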

[8] = tested on: corn; assay: Test Example 4: effect on crop by soil treatment (symbol c); conditions: application herbicide amount 320 g/ha
Procedure, shortened: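 The test used sterilized diluvial soil. Seed was set down in spots and overlaid with about 1.5 cm of soil before growth in a greenhouse kept at 25° C. to 30° C.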

[9] = tested on: Lolium multiflorum Lam.; assay: Test Example 4: herbicidal effect by soil treatment (symbol K); conditions: application herbicide amount 320 g/ha
Procedure, shortened: as §2

[10] = tested on: Abutilon theophrasti; assay: Test Example 5: herbicidal effect by foliage application, plastic box (symbol M); conditions: 320 g/ha, 3 weeks after application
Procedure, shortened: as §1

[11] = tested on: Echinochloa crus-galli var. crus-galli; assay: Test Example 3: herbicidal effect by foliage application, Wagner pot (symbol H); conditions: application herbicide amount 320 g/ha
Procedure, shortened: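 The compound, formulated as an emulsion and diluted with water to a predetermined rate, is applied uniformly to leaves of two-week-old seedlings growing in submerged alluvial soil at 25–30 °C. Rice is included. Each plant is assessed 3 weeks later using defined criteria.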

[12] = tested on: soybean; assay: Test Example 5: effect on crop by foliage application, plastic box (symbol d); conditions: 320 g/ha, 3 weeks after application
Procedure, shortened: as §3

[13] = tested on: Setaria viridis; assay: Test Example 5: herbicidal effect by foliage application, plastic box (symbol G); conditions: 320 g/ha, 3 weeks after application
Procedure, shortened: as §1

[14] = tested on: Amaranthus retroflexus; assay: Test Example 4: herbicidal effect by soil treatment (symbol N); conditions: application herbicide amount 320 g/ha
Procedure, shortened: as §2

[15] = tested on: Alopecurus myosuroides; assay: Test Example 4: herbicidal effect by soil treatment (symbol J); conditions: application herbicide amount 320 g/ha
Procedure, shortened: as §2

[16] = tested on: Monochoria vaginalis; assay: Test Example 1: herbicidal activity, application before weed generation in submerged conditions (symbol C); conditions: application herbicide amount 320 g/ha
Procedure, shortened: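 Scores run 0 to 5 by herbicidal ratio, with 5 meaning 90% or more and 0 meaning 5% or lower, read 3 weeks after treatment. Compound was applied as a diluted emulsion to the water surface of submerged alluvial-soil pots on the day weed seeds were sown.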

| Compound | O: Chenopodium album, herbicidal effect grade [1] | H: Echinochloa crus-galli var. crus-galli, herbicidal effect grade [2] | L (Apera spica-venti) herbicidal effect grade [3] | P (Stellaria media) herbicidal effect grade [4] | effect on crop b (directly sowed rice plant), grade 0-5 [5] | R: Veronica persica, herbicidal effect grade [6] | e: wheat, effect on crop grade [7] | c (corn) effect on crop grade [8] | K (Lolium multiflorum Lam.) herbicidal effect grade [9] | M: Abutilon theophrasti, herbicidal effect grade [10] | herbicidal effect on H (Echinochloa crus-galli var. crus-galli), grade 0-5 [11] | d: soybean, effect on crop grade [12] | G: Setaria viridis, herbicidal effect grade [13] | N (Amaranthus retroflexus) herbicidal effect grade [14] | J (Alopecurus myosuroides) herbicidal effect grade [15] | Herbicidal effect grade, C: Monochoria vaginalis [16] |
| --- | --- | --- | --- | --- | --- | --- | --- | --- | --- | --- | --- | --- | --- | --- | --- | --- |
| CCCCCCCON=C(C)CC1CC(O)=C(c2c(C)cc(C)cc2C)C1=O (centres unmarked) [1-054] | 0 (Herbicidal ratio of 5% or lower (almost no effect)) | 4 (Herbicidal ratio of 70% or higher and lower than 90%) | 1 (Herbicidal ratio of 5% or higher and lower than 20%) | 0 (Herbicidal ratio of 5% or lower (almost no effect)) | 5 (Herbicidal ratio of 90% or more (almost completely withered)) | 0 (Herbicidal ratio of 5% or lower (almost no effect)) | 0 (Herbicidal ratio of 5% or lower (almost no effect)) | 0 (Herbicidal ratio of 5% or lower (almost no effect)) | 5 (Herbicidal ratio of 90% or more (almost completely withered)) | 0 (Herbicidal ratio of 5% or lower (almost no effect)) | 5 (Herbicidal ratio of 90% or more (almost completely withered)) | 0 (Herbicidal ratio of 5% or lower (almost no effect)) | 3 (Herbicidal ratio of 40% or higher and lower than 70%) | 0 (Herbicidal ratio of 5% or lower (almost no effect)) | 1 (Herbicidal ratio of 5% or higher and lower than 20%) | 0 (Herbicidal ratio of 5% or lower (almost no effect)) |
| CC(CC1CC(O)=C(c2c(C)cc(C)cc2C)C1=O)=NOc1ccccc1 (centres unmarked) [1-057] | 0 (Herbicidal ratio of 5% or lower (almost no effect)) | 4 (Herbicidal ratio of 70% or higher and lower than 90%) | 4 (Herbicidal ratio of 70% or higher and lower than 90%) | 0 (Herbicidal ratio of 5% or lower (almost no effect)) | 5 (Herbicidal ratio of 90% or more (almost completely withered)) | 0 (Herbicidal ratio of 5% or lower (almost no effect)) | 0 (Herbicidal ratio of 5% or lower (almost no effect)) | 0 (Herbicidal ratio of 5% or lower (almost no effect)) | 5 (Herbicidal ratio of 90% or more (almost completely withered)) | 1 (Herbicidal ratio of 5% or higher and lower than 20%) | 4 (Herbicidal ratio of 70% or higher and lower than 90%) | 3 (Herbicidal ratio of 40% or higher and lower than 70%) | 3 (Herbicidal ratio of 40% or higher and lower than 70%) | 1 (Herbicidal ratio of 5% or higher and lower than 20%) | 4 (Herbicidal ratio of 70% or higher and lower than 90%) | 2 (Herbicidal ratio of 20% or higher and lower than 40%) |
| CON=C(CC1CC(O)=C(c2c(C)cc(C)cc2C)C1=O)C(C)(C)C (centres unmarked) [1-059] | 0 (Herbicidal ratio of 5% or lower (almost no effect)) | 4 (Herbicidal ratio of 70% or higher and lower than 90%) | 5 (Herbicidal ratio of 90% or more (almost completely withered)) | 0 (Herbicidal ratio of 5% or lower (almost no effect)) | 5 (Herbicidal ratio of 90% or more (almost completely withered)) | 0 (Herbicidal ratio of 5% or lower (almost no effect)) | 0 (Herbicidal ratio of 5% or lower (almost no effect)) | 3 (Herbicidal ratio of 40% or higher and lower than 70%) | 5 (Herbicidal ratio of 90% or more (almost completely withered)) | 0 (Herbicidal ratio of 5% or lower (almost no effect)) | 4 (Herbicidal ratio of 70% or higher and lower than 90%) | 0 (Herbicidal ratio of 5% or lower (almost no effect)) | 4 (Herbicidal ratio of 70% or higher and lower than 90%) | 0 (Herbicidal ratio of 5% or lower (almost no effect)) | 3 (Herbicidal ratio of 40% or higher and lower than 70%) | 2 (Herbicidal ratio of 20% or higher and lower than 40%) |
| CON=C(C)CC1CC(OC(=O)C(C)Oc2ccccc2)=C(c2c(C)cc(C)cc2C)C1=O (centres unmarked) [1-060] | 3 (Herbicidal ratio of 40% or higher and lower than 70%) | 5 (Herbicidal ratio of 90% or more (almost completely withered)) | 5 (Herbicidal ratio of 90% or more (almost completely withered)) | 0 (Herbicidal ratio of 5% or lower (almost no effect)) | 5 (Herbicidal ratio of 90% or more (almost completely withered)) | 3 (Herbicidal ratio of 40% or higher and lower than 70%) | 5 (Herbicidal ratio of 90% or more (almost completely withered)) | 4 (Herbicidal ratio of 70% or higher and lower than 90%) | 5 (Herbicidal ratio of 90% or more (almost completely withered)) | 3 (Herbicidal ratio of 40% or higher and lower than 70%) | 5 (Herbicidal ratio of 90% or more (almost completely withered)) | 4 (Herbicidal ratio of 70% or higher and lower than 90%) | 5 (Herbicidal ratio of 90% or more (almost completely withered)) | 5 (Herbicidal ratio of 90% or more (almost completely withered)) | 5 (Herbicidal ratio of 90% or more (almost completely withered)) | 3 (Herbicidal ratio of 40% or higher and lower than 70%) |
| CCCC(CC1CC(O)=C(c2c(C)cc(C)cc2C)C1=O)=NOC (centres unmarked) [1-062] | 0 (Herbicidal ratio of 5% or lower (almost no effect)) | 4 (Herbicidal ratio of 70% or higher and lower than 90%) | 4 (Herbicidal ratio of 70% or higher and lower than 90%) | 0 (Herbicidal ratio of 5% or lower (almost no effect)) | 5 (Herbicidal ratio of 90% or more (almost completely withered)) | 0 (Herbicidal ratio of 5% or lower (almost no effect)) | 0 (Herbicidal ratio of 5% or lower (almost no effect)) | 4 (Herbicidal ratio of 70% or higher and lower than 90%) | 5 (Herbicidal ratio of 90% or more (almost completely withered)) | 0 (Herbicidal ratio of 5% or lower (almost no effect)) | 4 (Herbicidal ratio of 70% or higher and lower than 90%) | 0 (Herbicidal ratio of 5% or lower (almost no effect)) | 4 (Herbicidal ratio of 70% or higher and lower than 90%) | 0 (Herbicidal ratio of 5% or lower (almost no effect)) | 5 (Herbicidal ratio of 90% or more (almost completely withered)) | 1 (Herbicidal ratio of 5% or higher and lower than 20%) |

Source: patent US11000033B2, “Ketone or oxime compound, and herbicide” (NISSAN CHEMICAL CORPORATION, priority 2014, dated 2021)
